The target of assay [1] is T1, D(2) dopamine receptor (Rattus norvegicus, UniProt P61169). The assay is described as follows: Displacement of [3H]raclopride from rat D2 dopamine receptor expressed in CHOK1 cells after 90 mins by liquid scintillation counter scintillation counter. Type of assay: cell-based, CHO-K1. A general note: Loss of bound radioactivity is the signal in a displacement assay; it reports binding, not function.

The target of assay [2] is T1, D(2) dopamine receptor. The assay is described as follows: Agonist activity at rat D2 dopamine receptor expressed in CHOK1 cells assessed as [35S]GTPgammaS binding after 90 mins by liquid scintillation counter. In kind it is functional, cell-based, CHO-K1.
Assay [3] concerns the target D(1A) dopamine receptor (Homo sapiens, UniProt P21728). The assay is described as follows: Displacement of [3H]SCH23390 from human D1 dopamine receptor expressed in Ltk fibroblast cells after 60 mins by liquid scintillation counter. In kind it is cell-based.
A short description of assay [4]: Selectivity ratio of Ki for rat D2 dopamine receptor to Ki for human D1 dopamine receptor.

D(1A) dopamine receptor, sequence (P21728 whole entry): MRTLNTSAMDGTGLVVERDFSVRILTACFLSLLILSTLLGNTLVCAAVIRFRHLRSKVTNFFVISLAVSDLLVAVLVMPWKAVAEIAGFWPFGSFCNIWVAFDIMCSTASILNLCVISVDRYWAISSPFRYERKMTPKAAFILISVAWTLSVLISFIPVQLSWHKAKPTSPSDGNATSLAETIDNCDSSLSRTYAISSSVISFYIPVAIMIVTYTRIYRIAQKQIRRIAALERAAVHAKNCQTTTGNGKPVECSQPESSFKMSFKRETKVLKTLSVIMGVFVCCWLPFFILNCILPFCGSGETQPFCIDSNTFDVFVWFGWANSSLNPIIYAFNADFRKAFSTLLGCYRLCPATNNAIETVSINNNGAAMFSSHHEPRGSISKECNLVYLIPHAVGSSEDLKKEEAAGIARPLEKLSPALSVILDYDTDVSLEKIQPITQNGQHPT
T1 sequence (P61169 whole entry): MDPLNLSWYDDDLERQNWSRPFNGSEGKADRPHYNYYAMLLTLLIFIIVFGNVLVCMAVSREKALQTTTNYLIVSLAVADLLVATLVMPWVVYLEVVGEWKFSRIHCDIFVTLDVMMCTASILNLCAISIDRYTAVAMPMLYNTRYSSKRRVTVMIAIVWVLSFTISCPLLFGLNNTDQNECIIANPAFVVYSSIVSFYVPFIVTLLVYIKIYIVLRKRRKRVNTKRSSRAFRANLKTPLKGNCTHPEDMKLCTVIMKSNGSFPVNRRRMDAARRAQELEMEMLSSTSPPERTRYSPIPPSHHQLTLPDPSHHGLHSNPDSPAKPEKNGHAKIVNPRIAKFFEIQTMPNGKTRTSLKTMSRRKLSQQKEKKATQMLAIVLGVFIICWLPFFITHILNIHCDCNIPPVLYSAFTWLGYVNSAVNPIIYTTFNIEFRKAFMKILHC

Usually Ki stands for a measure of affinity in units of concentration, obtained from inhibition or displacement. A higher Ki goes with lower affinity. In general, EC50 refers to the concentration that produces a half-maximal response. For the molecule `CN1CCc2c3c(cc4c2[C@H]1Cc1ccc(O)c(O)c1-4)SCCC3=O`, the Ki stood at 415 nM in assay [1] and 140 nM in assay [3]. The EC50 in assay [2] was 383 nM. The Ratio Ki in assay [4] was determined as 0.3.
For `CN1CCc2cc(Sc3ccccc3)cc3c2[C@H]1Cc1ccc(O)c(O)c1-3`, the Ki was 580 nM in assay [1] and 2200 nM in assay [3]. The EC50 in assay [2] came to 820 nM. Further, the Ratio Ki in assay [4] is 47.
In the case of `CN1CCc2cc(SC[C@@H](N)C(=O)O)cc3c2[C@H]1Cc1ccc(O)c(O)c1-3`, in assay [3], the Ki came to 141 nM.
In turn, `CN1CCc2cc(SC[C@H](N)C(=O)O)cc3c2[C@H]1Cc1ccc(O)c(O)c1-3` registered a Ki in assay [3] of 4200 nM.
`CN1CCc2cc(SCCC(=O)O)cc3c2[C@H]1Cc1ccc(O)c(O)c1-3`: the Ki in assay [1] is 400 nM; in assay [3] it was 150 nM. Moreover, the EC50 in assay [2] was found to be 148 nM. Moreover, the Ratio Ki in assay [4] stood at 0.4.
On the same counts, the results for `CN1CCc2cc(SCCN)cc3c2[C@H]1Cc1ccc(O)c(O)c1-3` are 9.6 nM, 1300 nM, 16 nM and 135.
`COC(=O)[C@@H](N)CSc1cc2c3c(c1)-c1c(ccc(O)c1O)C[C@H]3N(C)CC2`: the figures for the Ki in assay [1] and in assay [3] were 10 nM and 380 nM, respectively. For the same molecule, the EC50 in assay [2] stood at 24 nM. In addition, the Ratio Ki in assay [4] was 38.

Values taken from ChEMBL document CHEMBL1799928, “New 2-thioether-substituted apomorphines as potent and selective dopamine D₂ receptor agonists” (Eur J Med Chem, 2011).
